The values that follow come from US20250205344A1, “2,4-DIOXOTETRAHYDROPYRIMIDINYL DERATIVES AS DEGRONS IN PROTACS” (GLAXOSMITHKLINE INTELLECTUAL PROPERTY DEVELOPMENT LIMITED, priority 2022, published 2025).

Each structure is given as a SMILES string. Where a name gives a salt, the structure may show the parent alone. A value given as a limit tells only on which side of the number the result lay.

The target of the first test is T1, Androgen Receptor (Homo sapiens, UniProt P10275, T878A).
T1 construct: the AR gene was modified, using CRISPR/Cas9 editing, so the expressed AR protein included an 11 amino acid HiBiT tag; endogenous in cells; host or cells: clonal LnCaP-derived line, AR gene edited by CRISPR/Cas9
T1 sequence (P10275 whole entry T878A): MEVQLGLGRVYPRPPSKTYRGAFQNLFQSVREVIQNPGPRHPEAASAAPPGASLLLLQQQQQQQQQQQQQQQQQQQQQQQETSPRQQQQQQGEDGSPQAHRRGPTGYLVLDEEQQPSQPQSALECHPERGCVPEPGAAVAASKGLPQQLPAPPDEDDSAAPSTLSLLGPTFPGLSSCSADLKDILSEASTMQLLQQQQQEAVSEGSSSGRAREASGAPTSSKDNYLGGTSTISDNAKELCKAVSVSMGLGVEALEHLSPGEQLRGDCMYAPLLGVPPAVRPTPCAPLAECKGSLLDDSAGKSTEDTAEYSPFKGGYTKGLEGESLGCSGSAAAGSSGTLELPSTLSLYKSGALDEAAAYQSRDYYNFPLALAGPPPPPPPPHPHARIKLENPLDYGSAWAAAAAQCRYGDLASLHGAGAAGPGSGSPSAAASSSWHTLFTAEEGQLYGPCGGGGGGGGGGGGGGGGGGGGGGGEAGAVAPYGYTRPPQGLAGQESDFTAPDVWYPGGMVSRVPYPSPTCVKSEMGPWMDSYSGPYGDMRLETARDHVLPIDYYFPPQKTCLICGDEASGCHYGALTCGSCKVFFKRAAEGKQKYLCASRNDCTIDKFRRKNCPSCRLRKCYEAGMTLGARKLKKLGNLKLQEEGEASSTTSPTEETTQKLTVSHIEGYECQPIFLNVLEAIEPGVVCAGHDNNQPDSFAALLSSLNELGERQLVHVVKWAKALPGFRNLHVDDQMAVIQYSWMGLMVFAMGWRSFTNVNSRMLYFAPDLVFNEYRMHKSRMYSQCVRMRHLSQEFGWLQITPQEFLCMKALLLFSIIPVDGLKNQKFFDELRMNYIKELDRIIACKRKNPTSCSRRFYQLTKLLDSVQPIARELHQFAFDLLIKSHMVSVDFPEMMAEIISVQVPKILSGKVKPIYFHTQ
T1 sequence (Q96SW2 whole entry partner): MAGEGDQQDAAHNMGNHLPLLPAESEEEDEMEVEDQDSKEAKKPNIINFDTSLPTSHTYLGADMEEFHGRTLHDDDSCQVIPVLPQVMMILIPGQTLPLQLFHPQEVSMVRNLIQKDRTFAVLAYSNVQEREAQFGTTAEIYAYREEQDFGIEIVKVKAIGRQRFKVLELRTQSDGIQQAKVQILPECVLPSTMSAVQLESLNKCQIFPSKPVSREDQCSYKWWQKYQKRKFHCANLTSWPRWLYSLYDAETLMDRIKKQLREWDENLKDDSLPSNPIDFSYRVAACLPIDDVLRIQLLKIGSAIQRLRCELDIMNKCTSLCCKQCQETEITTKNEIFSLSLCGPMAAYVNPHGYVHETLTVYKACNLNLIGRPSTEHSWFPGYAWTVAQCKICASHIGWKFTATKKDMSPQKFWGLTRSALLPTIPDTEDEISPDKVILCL
T1 sequence (Q16531 whole entry partner): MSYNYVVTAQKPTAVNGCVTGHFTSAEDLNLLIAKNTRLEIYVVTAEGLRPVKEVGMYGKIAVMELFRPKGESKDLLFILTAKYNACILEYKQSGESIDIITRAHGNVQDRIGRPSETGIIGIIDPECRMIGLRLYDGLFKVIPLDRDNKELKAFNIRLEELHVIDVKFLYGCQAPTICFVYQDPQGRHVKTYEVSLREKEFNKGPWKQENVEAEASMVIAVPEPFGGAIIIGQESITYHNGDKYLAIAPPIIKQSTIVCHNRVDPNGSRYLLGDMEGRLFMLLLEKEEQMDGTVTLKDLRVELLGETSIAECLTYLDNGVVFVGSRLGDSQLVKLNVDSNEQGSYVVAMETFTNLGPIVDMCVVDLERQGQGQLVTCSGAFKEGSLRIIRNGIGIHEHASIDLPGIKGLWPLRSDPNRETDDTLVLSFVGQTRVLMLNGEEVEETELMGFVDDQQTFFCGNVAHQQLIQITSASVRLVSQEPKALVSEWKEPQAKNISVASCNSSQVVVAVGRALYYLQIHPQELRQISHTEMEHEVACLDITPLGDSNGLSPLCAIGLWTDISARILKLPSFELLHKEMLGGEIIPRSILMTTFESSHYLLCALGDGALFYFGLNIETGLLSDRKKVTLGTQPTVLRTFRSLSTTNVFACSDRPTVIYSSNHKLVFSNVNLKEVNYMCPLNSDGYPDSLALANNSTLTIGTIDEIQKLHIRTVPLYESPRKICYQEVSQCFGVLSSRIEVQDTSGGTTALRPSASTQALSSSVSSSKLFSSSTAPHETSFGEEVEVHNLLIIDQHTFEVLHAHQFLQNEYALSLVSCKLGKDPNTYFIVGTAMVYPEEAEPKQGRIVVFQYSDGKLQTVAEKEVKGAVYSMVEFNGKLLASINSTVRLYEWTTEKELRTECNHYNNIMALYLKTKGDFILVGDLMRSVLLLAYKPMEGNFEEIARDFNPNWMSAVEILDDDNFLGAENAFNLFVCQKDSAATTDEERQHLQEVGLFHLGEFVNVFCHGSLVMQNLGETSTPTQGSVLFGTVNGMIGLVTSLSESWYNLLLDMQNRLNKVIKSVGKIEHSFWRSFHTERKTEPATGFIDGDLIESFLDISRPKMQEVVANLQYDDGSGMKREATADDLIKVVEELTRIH
The test can be described thus: Androgen Receptor Degradation Assay (Nano-Glo HiBiT). The settings on record: HiBiT-tagged AR in human LnCaP cells, 18 h. It counts as cell-based. In a few lines: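 LnCaP cells with CRISPR-knocked-in N-terminal HiBiT-tagged AR (10,000/well) treated 18 h at 37 °C with PROTACs over 11 threefold concentrations; lytic HiBiT luminescence normalised to DMSO (0%) and cell-free (100%) controls. Relative DC50 = 4-parameter fit inflection; absolute DC50 = 50% degradation interpolation; Dmax = maximum observed degradation.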
For the compound `CC1(C)[C@H](NC(=O)c2ncc(N3CCC(CN4CCC(n5ncc6c(N7CCC(=O)NC7=O)nccc65)CC4)CC3)cn2)C(C)(C)[C@H]1Oc1ccc(C#N)c(Cl)c1` [EAR273, N-((1r,3r)-3-(3-Chloro-4-cyanophenoxy)-2,2,4,4-tetramethylcyclobutyl)-5-(4-((4-(4-(2,4-dioxotetrahydropyrimidin-1(2H)-yl)-1H-pyrazolo[4,3-c]pyridin-1-yl)piperidin-1-yl)methyl)piperidin-1-yl)pyrimidine-2-carboxamide], the “mean relative pDC50” value was found to be 5.67.

The same test, now with this note: LNCaP, 18 h, HiBiT-tagged AR in human LnCaP cells, read-out: mean asymptote max.
In the case of `CC(C)n1ccc2c(N3CCC(=O)NC3=O)cc(C(=O)N(C)CC3CCN(CC4CCN(c5ccc(N6C(=S)N(c7ccc(C#N)c(C(F)(F)F)c7)C(=O)C6(C)C)cc5)CC4)CC3)cc21` [EAR89, N-((1-((1-(4-(3-(4-Cyano-3-(trifluoromethyl)phenyl)-5,5-dimethyl-4-oxo-2-thioxoimidazolidin-1-yl)phenyl)piperidin-4-yl)methyl)piperidin-4-yl)methyl)-4-(2,4-dioxotetrahydropyrimidin-1(2H)-yl)-1-isopropyl-N-methyl-1H-indole-6-carboxamide], the Dmax is no less than 50%. Same read-out and setting: to `CC(C)n1ccc2c(N3CCC(=O)NC3=O)cc(C(=O)N(C)CC3CCN(CCCOc4ccc(N5C(=S)N(c6ccc(C#N)c(C(F)(F)F)c6)C(=O)C5(C)C)cc4)CC3)cc21` [EAR93, N-((1-(3-(4-(3-(4-Cyano-3-(trifluoromethyl)phenyl)-5,5-dimethyl-4-oxo-2-thioxoimidazolidin-1-yl)phenoxy)propyl)piperidin-4-yl)methyl)-4-(2,4-dioxotetrahydropyrimidin-1(2H)-yl)-1-isopropyl-N-methyl-1H-indole-6-carboxamide formate] belongs no less than 50%; to `N#Cc1ccc(O[C@H]2CC[C@H](NC(=O)c3ccc(N4CCC(CN5CCC(n6ccc7c(N8CCC(=O)NC8=O)cncc76)CC5)CC4)nn3)CC2)cc1Cl` [EAR48, N-((1r,4r)-4-(3-Chloro-4-cyanophenoxy)cyclohexyl)-6-(4-((4-(4-(2,4-dioxotetrahydropyrimidin-1(2H)-yl)-1H-pyrrolo[2,3-c]pyridin-1-yl)piperidin-1-yl)methyl)piperidin-1-yl)pyridazine-3-carboxamide hydrochloride], no less than 50%.

With `N#Cc1ccc(O[C@H]2CC[C@H](NC(=O)c3ccc(OC4CN(C(=O)CN5CCC(n6ccc7c(N8CCC(=O)NC8=O)cccc76)CC5)C4)nn3)CC2)cc1Cl` [EAR178, N-((1r,4r)-4-(3-Chloro-4-cyanophenoxy)cyclohexyl)-6-((1-(2-(4-(4-(2,4-dioxotetrahydropyrimidin-1(2H)-yl)-1H-indol-1-yl)piperidin-1-yl)acetyl)azetidin-3-yl)oxy)pyridazine-3-carboxamide], the Dmax was no less than 50%. On the same count and under the same terms, with `CC1(C)[C@H](NC(=O)c2ncc(N3CCC(CN4CCC(n5ncc6c(N7CCC(=O)NC7=O)nccc65)CC4)CC3)cn2)C(C)(C)[C@H]1Oc1ccc(C#N)c(Cl)c1` [EAR273, N-((1r,3r)-3-(3-Chloro-4-cyanophenoxy)-2,2,4,4-tetramethylcyclobutyl)-5-(4-((4-(4-(2,4-dioxotetrahydropyrimidin-1(2H)-yl)-1H-pyrazolo[4,3-c]pyridin-1-yl)piperidin-1-yl)methyl)piperidin-1-yl)pyrimidine-2-carboxamide] the figure was no less than 50%. For the compound `N#Cc1ccc(O[C@H]2CC[C@H](NC(=O)c3ccc(N4CCN(CC5CCC(n6ccc7c(N8CCC(=O)NC8=O)cccc76)CC5)CC4)nn3)CC2)cc1Cl` (stereo partly drawn) [EAR194, N-((1r,4r)-4-(3-Chloro-4-cyanophenoxy)cyclohexyl)-6-(4-((4-(4-(2,4-dioxotetrahydropyrimidin-1(2H)-yl)-1H-indol-1-yl)cyclohexyl)methyl)piperazin-1-yl)pyridazine-3-carboxamide, trifluoroacetic acid salt], the Dmax was no less than 50%. Same read-out and setting: with `N#Cc1ccc(O[C@H]2CC[C@H](NC(=O)c3cnc(N4CCC(CN5CCC(n6ncc7c(N8CCC(=O)NC8=O)c(F)ccc76)CC5)CC4)cn3)CC2)cc1Cl` [EAR190, N-((1r,4r)-4-(3-Chloro-4-cyanophenoxy)cyclohexyl)-5-(4-((4-(4-(2,4-dioxotetrahydropyrimidin-1(2H)-yl)-5-fluoro-1H-indazol-1-yl)piperidin-1-yl)methyl)piperidin-1-yl)pyrazine-2-carboxamide hydrochloride] the figure was no less than 50%. `N#Cc1ccc(O[C@H]2CC[C@H](NC(=O)c3cnc(N4CCC(CN5CCC(n6ncc7c(N8CCC(=O)NC8=O)cc(F)cc76)CC5)CC4)cn3)CC2)cc1Cl` [EAR217, N-((1r,4r)-4-(3-chloro-4-cyanophenoxy)cyclohexyl)-5-(4-((4-(4-(2,4-dioxotetrahydropyrimidin-1(2H)-yl)-6-fluoro-1H-indazol-1-yl)piperidin-1-yl)methyl)piperidin-1-yl)pyrazine-2-carboxamide hydrochloride]: the Dmax is no less than 50%. As for `C[C@@H]1CN(c2ccc(C#N)c(Cl)c2)[C@@H](C)CN1C(=O)Nc1cnc(N2CCC(CN3CCC(n4ccc5c(N6CCC(=O)NC6=O)cncc54)CC3)CC2)nc1` [EAR106, (2R,5S)-4-(3-Chloro-4-cyanophenyl)-N-(2-(4-((4-(4-(2,4-dioxotetrahydropyrimidin-1(2H)-yl)-1H-pyrrolo[2,3-c]pyridin-1-yl)piperidin-1-yl)methyl)piperidin-1-yl)pyrimidin-5-yl)-2,5-dimethylpiperazine-1-carboxamide], the Dmax was no less than 50%. On to `N#Cc1ccc(O[C@H]2CC[C@H](NC(=O)c3ccc(N4CCC(CN5CCC(n6ccc7c(N8CCC(=O)NC8=O)nccc76)CC5)CC4)nn3)CC2)cc1Cl` [EAR148, N-((1r,4r)-4-(3-Chloro-4-cyanophenoxy)cyclohexyl)-6-(4-((4-(4-(2,4-dioxotetrahydropyrimidin-1(2H)-yl)-1H-pyrrolo[3,2-c]pyridin-1-yl)piperidin-1-yl)methyl)piperidin-1-yl)pyridazine-3-carboxamide], for which the Dmax was no less than 50%.

For `N#Cc1ccc(O[C@H]2CC[C@H](NC(=O)c3ccc(CCN4CCC(n5ccc6c(N7CCC(=O)NC7=O)cccc65)CC4)cc3)CC2)cc1Cl` [EAR130, N-((1r,4r)-4-(3-Chloro-4-cyanophenoxy)cyclohexyl)-4-(2-(4-(4-(2,4-dioxotetrahydropyrimidin-1(2H)-yl)-1H-indol-1-yl)piperidin-1-yl)ethyl)benzamide], the Dmax was no less than 50%. For `N#Cc1ccc(O[C@H]2CC[C@H](NC(=O)c3ccc(N4CCC(CN5CC[C@@H](n6ccc7c(N8CCC(=O)NC8=O)cccc76)C5)CC4)nn3)CC2)cc1Cl` [EAR172, N-((1r,4r)-4-(3-Chloro-4-cyanophenoxy)cyclohexyl)-6-(4-(((S)-3-(4-(2,4-dioxotetrahydropyrimidin-1(2H)-yl)-1H-indol-1-yl)pyrrolidin-1-yl)methyl)piperidin-1-yl)pyridazine-3-carboxamide, hydrochloride], the Dmax is no less than 50%.

`C[C@@H]1CN(C(=O)Nc2cnc(N3CCC(CN4CCC(n5ccc6c(N7CCC(=O)NC7=O)cccc65)CC4)CC3)nc2)[C@@H](C)CN1c1ccc(C#N)c(Cl)c1` (racemic) [EAR114, rac-(trans)-4-(3-Chloro-4-cyanophenyl)-N-(2-(4-((4-(4-(2,4-dioxotetrahydropyrimidin-1(2H)-yl)-1H-indol-1-yl)piperidin-1-yl)methyl)piperidin-1-yl)pyrimidin-5-yl)-2,5-dimethylpiperazine-1-carboxamide]: the Dmax was no less than 50%.

On to `N#Cc1ccc(O[C@H]2CC[C@H](NC(=O)c3ccc(N4CCC(CN5CCC(n6ncc7c(N8CCC(=O)NC8=O)cc(C(F)(F)F)cc76)CC5)CC4)nn3)CC2)cc1Cl` [EAR161, N-((1r,4r)-4-(3-Chloro-4-cyanophenoxy)cyclohexyl)-6-(4-((4-(4-(2,4-dioxotetrahydropyrimidin-1(2H)-yl)-6-(trifluoromethyl)-1H-indazol-1-yl)piperidin-1-yl)methyl)piperidin-1-yl)pyridazine-3-carboxamide], for which the Dmax was no less than 50%.
